Test results published in patent publication US20060223891A1, “Use of alverine, alone or in combination with a tricyclic antidepressant or an antidepressant which is a specific inhibitor of serotonin reuptake for treatment of depression” (CEREP, priority 2003, published 2006).
Where “and” joins values, the source holds several entries; their conditions need not be identical. Equal entries are not always repeated. Entries after “also recorded” stand apart in the source; their conditions may differ. Structures can show the parent of a compound that is named as a salt. Values belong to the molecule of their own block, whether it stands above or below them.

Tests used:
Type in all cases: in vivo
[1] = system: Swiss mice CD1; assay: forced swimming test, Alverine administered orally (Example 2); set-up: key to Dunnett test: * indicates a significant difference for p < 0.05 (Dunnett test); ns indicates an insignificant result; settings: for immobility time, individual mice / immobility time, Average: 60 minutes prior to the test; for immobility time, Average: N = 10; for % of variation of immobility time: vs average of excipient group; for Dunnett test: vs excipient group
Experimental: Antidepressive Activity Test on Alverine administered orally on a batch of mice.
To establish the advantages according to the present invention a study, was carried out on a batch of 50 mice. They were divided into 5 groups of 10 mice each. These are Swiss mice CD1 (CD-1® (ICR) IGS (Charles River France) weighing between 25 and 35 g.
The substance to be tested is Alverine citrate (Sigma, in the form of dry powder, with a salt/base ratio of 1.68) comparatively to imipramine chlorhydrate (Sigma, in the form of dry powder, with a salt/base ratio of 1.13).
The fifth group is treated with imipramine (tricyclic antidepressant) at a dose of 30 mg/kg The doses are expressed in terms of free active substances. The substances are prepared extemporaneously in the excipient. […]
One hour following administration the five groups of mice are subjected to the forced swimming test, in a vertical Plexiglas cylinder (height 24 cm, diameter 9 cm) containing water (height 6 cm, temperature 18-22° C.). The total duration of immobility is measured over the last four minutes of the test, six minutes in total. A mouse is deemed immobile when it ceases struggling and floats in the water without movements superfluous to those allowing it to keep its head above water. A drop in immobility time is the reflection of an antidepressant effect.
The results are expressed in total duration of immobility in seconds and as a percentage of variation of the total duration of immobility calculated from the average value of the sample group.
The statistical significance between the treated groups and the sample group is determined by a Dunnett test using the residual variation according to analysis of the. variance (P<0.05). The data are analysed using <<SigmaStat>> software.

[2] = system: Swiss mice CD1; assay: forced swimming test, Alverine administered intraperitoneally (Example 1); set-up: key to Dunnett test: * indicates a significant difference for p < 0.05 (Dunnett test); ns indicates an insignificant result; settings: for immobility time, individual mice / immobility time, Average: 30 minutes prior to the test; for immobility time, Average: N = 10; for % of variation of immobility time: vs average of excipient group; for Dunnett test: vs excipient group
Experimental: Antidepressive Activity Test on Alverine administered intraperitoneally on a batch of mice. To establish the advantages according to the present invention a study was carried out on a batch of 50 mice. They were divided into 5 groups of 10 mice each. These are Swiss mice CD1 (CD-1®(ICR) IGS (Charles River France) weighing between 25 and 35 g. The substance to be tested is Alverine citrate (Sigma, in the form of dry powder, with a salt/base ratio of 1.68) comparatively to imipramine chlorhydrate (Sigma, in the form of dry powder, with a salt/base ratio of 1.13). The doses are expressed in terms of free active substances. The substances are prepared extemporaneously in the excipient. The treatments are administered 30 minutes prior to the test in a coded and random order intraperitoneally with a volume of 10 ml/kg. Thirty minutes following administration the five groups of mice are subjected to the forced swimming test, in a vertical Plexiglas cylinder (height 24 cm, diameter 9 cm) containing water (height 6 cm, temperature 18-22° C.). The total duration of immobility is measured over the last four minutes of the test, six minutes in total. A mouse is deemed immobile when it ceases struggling and floats in the water without movements superfluous to those allowing it to keep its head above water. A drop in immobility time is the reflection of an antidepressant effect. The results are expressed in total duration of immobility in seconds and as a percentage of variation of the total duration of immobility calculated from the average value of the sample group. The statistical significance between the treated groups and the sample group is determined by a Dunnett test using the residual variation according to analysis of the variance (P<0.05). The data are analysed using <<SigmaStat>> software. The results obtained are presented in the form of the following table, and in the form of a histogram, in FIG. 1.

[3] = system: Swiss mice CD1; assay: forced swimming test, Alverine associated with fluoxetine, intraperitoneally (Example 3, test no. 2); settings: for immobility time, individual mice / immobility time, Average: 30 minutes prior to the test; for immobility time, Average: n = 10; for % of variation of immobility time: vs average of excipient group; for duration of immobilisation as compared to the sample group (in words): tested alone at 3 mg/kg
Experimental: The treatments are co-administered 30 minutes prior to the test in a coded and random order intraperitoneally with a volume of 10 ml/kg (5 ml/kg for each administration). […] The total duration of immobility is measured over the last four minutes of the test, six minutes in total. A mouse is deemed immobile when it ceases struggling and floats in the water without movements superfluous to those allowing it to keep its. head above water. A drop in immobility time is the reflection of an antidepressant effect. The results are expressed in total duration of immobility in seconds and as a percentage of variation of the total duration of immobility calculated from the average value of the sample group. The statistical significance between two treated groups is determined by using a Student test (P<0.05). The data are analysed using <<SigmaStat>> software.

[4] = system: Swiss mice CD1; assay: forced swimming test, Alverine associated with imipramine, intraperitoneally (Example 3, test no. 1); set-up: key to Dunnett test: * indicates a significant difference for p < 0.05 (Dunnett test); ns indicates an insignificant result; settings: for immobility time, individual mice / immobility time, Average / % of variation of immobility time / Dunnett test: intraperitoneally; for immobility time, individual mice / immobility time, Average: 30 minutes prior to the test; for immobility time, Average: n = 10; for % of variation of immobility time: vs average of excipient group; for Dunnett test: vs excipient group; for duration of immobilisation as compared to the sample group (in words): tested alone at 3 mg/kg
Experimental: The treatments are co-administered 30 minutes prior to the test in a coded and random order intraperitoneally with a volume of 10 ml/kg (5 ml/kg for each administration). Thirty minutes following administration the six groups of mice are subjected to the forced swimming test, in a vertical Plexiglas cylinder (height 24 cm, diameter 9 cm) containing water (height 6 cm, temperature 18-22° C.). The total duration of immobility is measured over the last four minutes of the test, six minutes in total. A mouse is deemed immobile when it ceases struggling and floats in the water without movements superfluous to those allowing it to keep its. head above water. A drop in immobility time is the reflection of an antidepressant effect. The results are expressed in total duration of immobility in seconds and as a percentage of variation of the total duration of immobility calculated from the average value of the sample group. The statistical significance between two treated groups is determined by using a Student test (P<0.05). The data are analysed using <<SigmaStat>> software.

[5] = 3 mg/kg alone, intraperitoneally
[6] = 10 mg/kg alone, intraperitoneally

secondary effect observed ([1]; mice treated orally, 10 to 100 mg/kg): no secondary effect was observed
SMILES: CCN(CCCc1ccccc1)CCCc1ccccc1 [Alverine citrate, N-ethyl-3,3′-diphenyldipropylamine]
immobility time, individual mice ([1]; 10 mg/kg orally): 95 s and 104 s and 111 s and 126 s and 108 s and 78 s and 115 s and 106 s and 113 s and 86 s | immobility time, Average ([1]; 10 mg/kg orally): 104.2 s | % of variation of immobility time ([1]; 10 mg/kg orally): −30% | Dunnett test ([1]; 10 mg/kg orally): ns | immobility time, individual mice ([1]; 30 mg/kg orally): 80 sec and 64 sec and 70 sec and 105 sec (3×) and 41 sec and 63 sec and 113 sec and 104 sec | immobility time, Average ([1]; 30 mg/kg orally): 85.0 s | % of variation of immobility time ([1]; 30 mg/kg orally): −43% | Dunnett test ([1]; 30 mg/kg orally): * (* indicates a significant difference for p < 0.05 (Dunnett test)) | immobility time, individual mice ([1]; 100 mg/kg orally): 129 s and 67 s and 6 s and 105 s and 75 s and 81 s and 5 s and 37 s and 32 s and 52 s | immobility time, Average ([1]; 100 mg/kg orally): 58.9 s | % of variation of immobility time ([1]; 100 mg/kg orally): −60% | Dunnett test ([1]; 100 mg/kg orally): * (* indicates a significant difference for p < 0.05 (Dunnett test)) | antidepressant effect (in words) ([1]; orally, 10 to 100 mg/kg, mice): significant antidepressant effect; also recorded: antidepressant effect proportional to the dose | immobility time, individual mice ([2]; 3 mg/kg intraperitoneally): 128 s and 82 s and 151 s and 132 s and 127 s and 88 s and 85 s and 99 s and 93 s and 118 s | immobility time, Average ([2]; 3 mg/kg intraperitoneally): 110.3 s | % of variation of immobility time ([2]; 3 mg/kg intraperitoneally): −15% | Dunnett test ([2]; 3 mg/kg intraperitoneally): ns | immobility time, individual mice ([2]; 10 mg/kg intraperitoneally): 29 s and 86 s and 28 s and 30 s and 90 s and 99 s and 65 s and 129 s and 57 s and 3 s | immobility time, Average ([2]; 10 mg/kg intraperitoneally): 61.6 s | % of variation of immobility time ([2]; 10 mg/kg intraperitoneally): −53% | Dunnett test ([2]; 10 mg/kg intraperitoneally): * (* indicates a significant difference for p < 0.05 (Dunnett test)) | immobility time, individual mice ([2]; 30 mg/kg intraperitoneally): 97 sec and 3 sec and 66 sec and 36 sec and 0 sec and 15 sec and 7 sec (2×) and 16 sec and 12 sec | immobility time, Average ([2]; 30 mg/kg intraperitoneally): 25.9 s | % of variation of immobility time ([2]; 30 mg/kg intraperitoneally): −80% | Dunnett test ([2]; 30 mg/kg intraperitoneally): * (* indicates a significant difference for p < 0.05 (Dunnett test)) | antidepressant effect (in words) ([2]; injected intraperitoneally, 3 to 30 mg/kg, mice): antidepressant effect proportional to the dose; also recorded: significant antidepressant effect | immobility time, individual mice [3, 5]: 119 sec and 138 sec and 117 sec (2×) and 110 sec and 73 sec and 47 sec and 124 sec and 72 sec and 32 sec | immobility time, Average [3, 5]: 94.9 s | % of variation of immobility time [3, 5]: −37% | immobility time, individual mice [3, 6]: 63 sec and 75 sec (2×) and 77 sec and 46 sec and 6 sec and 113 sec and 89 sec and 104 sec and 125 sec | immobility time, Average [3, 6]: 77.3 s | % of variation of immobility time [3, 6]: −49% | Dunnett test ([3]; 10 mg/kg alone, intraperitoneally, vs excipient group): * (* indicates a significant difference for p < 0.05 (Dunnett test)) | duration of immobilisation as compared to the sample group (in words) [3]: decrease, statistically insignificant | immobility time, individual mice ([4]; 3 mg/kg alone): 108 s and 134 s and 113 s and 65 s and 85 s and 73 s and 79 s and 125 s and 95 s and 140 s | immobility time, Average ([4]; 3 mg/kg alone): 101.7 s | % of variation of immobility time ([4]; 3 mg/kg alone): −30% | Dunnett test ([4]; 3 mg/kg alone): ns | immobility time, individual mice ([4]; 10 mg/kg alone): 28 s and 10 s and 1 s and 74 s and 22 s and 70 s and 69 s and 67 s and 42 s and 57 s | immobility time, Average ([4]; 10 mg/kg alone): 44.0 s | % of variation of immobility time ([4]; 10 mg/kg alone): −70% | Dunnett test ([4]; 10 mg/kg alone): * (* indicates a significant difference for p < 0.05 (Dunnett test)) | duration of immobilisation as compared to the sample group (in words) [4]: decrease, statistically insignificant

SMILES: CNCCC(Oc1ccc(C(F)(F)F)cc1)c1ccccc1 (stereo not shown) [Fluoxetine, fluoxetine]
duration of immobilisation as compared to the sample group (in words) [3]: decrease, statistically insignificant

SMILES: CN(C)CCCN1c2ccccc2CCc2ccccc21 [Imipramine, imipramine]
duration of immobilisation as compared to the sample group (in words) [4]: decrease, statistically insignificant
